{"source": "patent US12083196B2", "about": "“Personal cleansing compositions with surfactants for increased foam performance” (ECOLAB USA INC., priority 2020, dated 2024)", "assay": "SITA Foam Analyzer foam decay", "type": "physicochemical", "conditions": "single surfactant, 1%, FIG. 2", "description": "The reagents used below include: • Alpha-Step® PC-48 is a C10-16 sodium methyl 2-sulfolaurate and disodium 2-sulfolaurate available from Stepan; • Stepan-Mild® L3 is a predominantly C12 reaction product of lauryl alcohol and lactic acid available from Stepan; • SLES is sodium laureth sulfate; • Cola® Teric is an amphoteric sultaine available from Colonial Chemical, Inc.; • Glucopon® […] is an alkyl polyglycoside available from BASF Corporation; • Suga® Nate is a sodium laurylglucosides hydrooxypropylsulfonate available from Colonial Chemicals, Inc; • Lathanol® LAL is a sodium lauryl sulfoacetate available from Stepan. […] To rename sample measurement files, right click on the open sample window, and click “save” to rename your sample file • 8) If an error occurs at any point with your sample, the measurement reading can be stopped by clicking the red square “Stop icon” or by pressing the large red button on the machine • 9) Organize the graph generated with the icons in the fourth section of the tool bar: create new plot, add/remove data from plot, change axis properties, and view properties. […] Right click to rename the plot, insert or remove the plot and display the foam buildup, foam decay, or both The foam decay time was also measured. […]"}
{"substance": "sodium laureth sulfate [SLES]", "values": [{"measurement": "loss of foaming over 10 minutes", "value": "about 20 mL"}]}
